# Laboratory results: BindingDB's records for doi:10.1016/j.bmc.2014.03.018 (Deakin University, 2014)
# Assay: Antagonist activity at androgen receptor in human LNCAP cells assessed as inhibition of androgen-stimulated cell growth measured every 3 days
row,SMILES,IC50 [µM]
1,CC(C)(O)c1cn(-c2ccc(Cl)c(C(F)(F)F)c2)nn1,49
2,CC(C)(O)c1cn(-c2ccc([N+](=O)[O-])c(C(F)(F)F)c2)nn1,45
